# pIC50: −log10 of the molar value. Read-outs that look alike come from different tables or passages of the source.
# Tests used:
# [1] = system: LTB4 production in mouse blood (LTA4 hydrolase); test: Ex vivo LTB4 production by calcium ionophore stimulated mouse blood after oral dosing; type: in vivo
# Protocol: Ex Vivo LTB4 and Thromboxane Production by Calcium Ionophore Stimulated Mouse Blood for LTA4 Hydrolase Inhibitor Activity
# Leukotriene A4 hydrolase inhibitor compounds of the present invention were diluted to a predetermined concentration in phosphate buffered saline containing 2% DMSO and 1% Tween 80. The compounds were administered by oral gavage to adult male outbred mice weighing approximately 20-30 gm at a dose of 10 mg/kg body weight. (Compounds given at a dose of 50 mg/kg body weight are designtated in following Table by the symbol, *.) Sixty (60) minutes after administration of an LTA4 inhibitor compound of the invention, blood was collected (into heparin-containing tubes) from the retroorbital sinus. […] The mixture was incubated for 10 minutes at 37° C. in a humidified incubator. The reaction was terminated by centrifugation (833 g, 10 minutes at 4° C.). Supernatants were analyzed for LTB4 and thromboxane by commercially available enzyme-linked immunoassays (Caymen Chemical Co., Ann Arbor, Mich.] in accordance with the manufacturer's instructions. The percent inhibition was determined by comparison to animals treated identically except that the solution admininstered by oral gavage was devoid of inhibitor compound.
# [2] = biological target: T1, recombinant human LTA4 hydrolase (rhLTA4H) (Homo sapiens, UniProt P09960); test: Recombinant human LTA4 hydrolase assay for LTA4 hydrolase inhibitor activity; settings: Recombinant Human LTA4 Hydrolase Assay IC50 LTA4H
# T1 sequence (P09960 1-611): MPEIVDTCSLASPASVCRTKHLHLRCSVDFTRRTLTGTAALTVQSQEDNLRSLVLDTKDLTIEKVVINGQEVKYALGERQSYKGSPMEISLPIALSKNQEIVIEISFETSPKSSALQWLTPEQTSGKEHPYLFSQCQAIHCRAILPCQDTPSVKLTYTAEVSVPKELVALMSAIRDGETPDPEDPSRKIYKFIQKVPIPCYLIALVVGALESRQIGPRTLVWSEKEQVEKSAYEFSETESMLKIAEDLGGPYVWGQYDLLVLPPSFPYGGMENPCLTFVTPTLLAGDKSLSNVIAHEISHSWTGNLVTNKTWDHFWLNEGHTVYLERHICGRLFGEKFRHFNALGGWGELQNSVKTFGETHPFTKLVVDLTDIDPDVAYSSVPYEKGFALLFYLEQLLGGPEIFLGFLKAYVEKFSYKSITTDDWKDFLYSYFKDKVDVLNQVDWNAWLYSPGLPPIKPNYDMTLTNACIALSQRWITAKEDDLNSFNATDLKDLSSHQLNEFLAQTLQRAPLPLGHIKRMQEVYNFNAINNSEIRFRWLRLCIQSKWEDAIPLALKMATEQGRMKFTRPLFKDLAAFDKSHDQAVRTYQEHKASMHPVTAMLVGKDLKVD
# Protocol: One or more predetermined amounts of a compound of the invention were incubated in assay buffer (0.1 M potassium phosphate, 5 mg/ml fatty acid free BSA, 10% DMSO, pH 7.4) for 10 minutes at room temperature with 250 ng of recombinant hLTA4H to allow binding, if any, between the enzyme and inhibitor. The stock enzyme solution was 1 mg/ml LTA4 hydrolase, 50 mM Tris, pH 8.0, 150 mM NaCl, 2.5 mM beta-mercaptoethanol, 50% glycerol. […] Each reaction was carried out at room temperature for 10 minutes. The reaction was stopped by diluting 25 μl of the reaction mixture with 500 μl of the assay buffer without DMSO. LTB4 was quantified in the diluted sample by a commercially available enzyme-linked immunoassay [Caymen Chemical Co., Ann Arbor, Mich.] using the method recommended in the manufacturer's instructions and compared to the amount of LTB4 produced in a negative control (i.e., essentially identical conditions except without addition of an inhibitor compound). The IC50 was routinely calculated from the data produced.
# [3] = Mus musculus, po, 1 h, read-out: Murine Ex Vivo LTB4 Inhibition % I LTB4
# [4] = mouse, oral gavage, 1 hour after administration of 10 mg/kg; read-out: Murine Ex Vivo LTB4 Inhibition % I LTB4
# [5] = mouse, oral gavage, 1 hour after administration of 50 mg/kg (*); read-out: Murine Ex Vivo LTB4 Inhibition % I LTB4
pIC50 ([2]; recombinant hLTA4H),Structure (SMILES),"inhibition in vivo at 10 mg/kg [1, 4] [%]",also measured
8.00,c1csc(Cc2ccc(OCCN3CCCC3)cc2)c1 [Example 133],49,–
7.52,Oc1ccc(Cc2ccc(OCCN3CCCC3)cc2)cc1 [Example 137],38,–
6.38,c1ccc(Cc2ccc(OCCN3CCCC3)cc2)nc1 [Example 138],21,–
6.96,Fc1ccc(Cc2ccc(OCCN3CCCC3)cc2)cc1 [Example 139],9,–
7.43,Fc1cccc(Cc2ccc(OCCN3CCCC3)cc2)c1 [Example 142],32,–
5.40,Clc1ccccc1COc1ccc(OCCN2CCCC2)cc1 [Example 208],13,–
5.52,FC(F)(F)c1cccc(COc2ccc(OCCN3CCCC3)cc2)c1 [Example 209],0,–
6.92,Fc1cccc(COc2ccc(OCCN3CCCC3)cc2)c1 [Example 211],–,"inhibition in vivo at 50 mg/kg [1, 5]: 47%"
7.07,c1csc(COc2ccc(OCCN3CCCC3)cc2)c1 [Example 215],–,"inhibition in vivo at 50 mg/kg [1, 5]: 33%"
6.62,NC(=O)C1CCN(CCOc2ccc(Cc3cccs3)cc2)CC1 [Example 229],70,–
6.41,NC(=O)C1CCN(CCOc2ccc(Cc3ccsc3)cc2)CC1 [Example 230],53,–
6.43,NC(=O)C1CCN(CCOc2ccc(Cc3cccc(F)c3)cc2)CC1 [Example 233],98,–
5.97,c1ccc(Cc2ccc(OCCNC3CCCCC3)cc2)cc1 [Example 240],33,–
6.22,c1ccc(Cc2ccc(OCCNC3CCCC3)cc2)cc1 [Example 241],33,–
7.00,OC1CCN(CCOc2ccc(Cc3ccccc3)cc2)CC1 [Example 247],70,–
6.70,O=C(NC1CCN(CCOc2ccc(Cc3ccccc3)cc2)CC1)c1cc2ccccc2o1 [Example 248],56,–
6.80,NC(=O)C1CCN(CCOc2ccc(Oc3ccccc3)cc2)CC1 [Example 252],94,–
6.04,NC(=O)C1CCCN(CCOc2ccc(Oc3ccccc3)cc2)C1 (centres unmarked) [Example 253],73,–
5.22,CCOC(=O)C1CCN(CCOc2ccc(Oc3ccccc3)cc2)CC1 [Example 254],87,–
5.90,O=C(OCc1ccccc1)C1CCCN1CCCOc1ccc(Cc2ccccc2)cc1 (centres unmarked) [Example 258],–,"inhibition in vivo at 50 mg/kg [1, 5]: 81%"
7.00,c1ccc(Cc2ccc(OCCCN3CCCC3)cc2)cc1 [Example 259],–,"inhibition in vivo at 50 mg/kg [1, 5]: 35%"
6.66,COC(=O)C1CN(CCCOc2ccc(Cc3ccccc3)cc2)CCC1=O (centres unmarked) [Example 262],52,–
5.35,CC(C)(C)OC(=O)C1CCN(CCCOc2ccc(Cc3ccccc3)cc2)CC1 [Example 263],60,–

pIC50 ([2]; recombinant hLTA4H),Structure (SMILES),"inhibition in vivo at 10 mg/kg [1, 4] [%]",also measured
5.19,O=C(CCNCCOc1ccc(Cc2ccccc2)cc1)OCc1ccccc1 [Example 266],29,–
6.77,COC(=O)CCNCCCOc1ccc(Cc2ccccc2)cc1 [Example 267],–,"inhibition in vivo at 50 mg/kg [1, 5]: 100%"
5.56,CCOC(=O)C1CCCN(CCCOc2ccc(Cc3ccccc3)cc2)C1 (centres unmarked) [Example 269],50,–
6.21,O=C(CCNCCCCOc1ccc(Cc2ccccc2)cc1)OCc1ccccc1 [Example 273],100,–
7.96,c1ccc(Cc2ccc3c(c2)CC(CN2CCCC2)O3)cc1 (centres unmarked) [Example 280],33,–
5.43,CCOC(=O)C1CCN(CC2Cc3cc(Cc4ccccc4)ccc3O2)CC1 (centres unmarked) [Example 282],57,–
6.15,NC(=O)C1CCN(CC2Cc3cc(Cc4ccccc4)cnc3O2)CC1 (centres unmarked) [Example 288],0,–
6.35,NC(=O)C1CCN(CC2Cc3cc(Oc4ccccc4)ccc3O2)CC1 (centres unmarked) [Example 290],94,–
5.10,CCOC(=O)C1CCN(CC2Cc3cc(Oc4ccccc4)ccc3O2)CC1 (centres unmarked) [Example 291],67,–
6.96,CC(=O)N1CCN(CC2Cc3cc(Cc4ccccc4)ccc3O2)CC1 (centres unmarked) [Example 294],57,–
6.36,CNC(=O)C1CCN(CC2Cc3cc(Cc4ccccc4)ccc3O2)CC1 (centres unmarked) [Example 295],80,–
6.15,CNC(=O)C1CCN(CC2Cc3cc(Oc4ccccc4)ccc3O2)CC1 (centres unmarked) [Example 296],72,–
5.35,CCOC(=O)CC1CCN(CCOc2ccc(Cc3ccccc3)cc2)CC1 [Example 301],81,–
8.00,COC(=O)C1(O)CCN(CCOc2ccc(Cc3ccccc3)cc2)CC1 [Example 305],42,–
5.60,CCOC(=O)C1CCN(CCOc2ccc(Cc3cccc(F)c3)cc2)CC1 [Example 309],96,–
6.03,CCOC(=O)C1CCN(CCOc2ccc(Cc3cccs3)cc2)CC1 [Example 310],96,–
6.79,CC(=O)N[C@H]1C[C@@H](C)N(CCOc2ccc(Cc3ccccc3)cc2)[C@@H](C)C1 [Example 315],53,–
7.30,C[C@@H]1C[C@H](C(N)=O)C[C@H](C)N1CCOc1ccc(Cc2ccccc2)cc1 [Example 316],85,–
6.44,NC(=O)N1CCN(CC2Cc3cc(Cc4ccccc4)ccc3O2)CC1 (centres unmarked) [Example 337],82,–
5.70,c1ccc(Cc2ccc(OCCn3cnc4ccccc43)cc2)cc1 [Example 339],47,–
7.77,[O-][n+]1cccc2c1ncn2CCOc1ccc(Cc2ccccc2)cc1 [Example 363],62,–
–,[O-][n+]1ccc2c(c1)ncn2CCOc1ccc(Cc2ccccc2)cc1 [Example 365],–,"inhibition in vivo at 10 mg/kg [1, 3]: 72%; pIC50 [2]: 7.09"
4.38,NC(=O)C1CCN(CCOc2ccc(Cc3ccccc3)s2)CC1 [Example 369],100,–

Structure (SMILES),pIC50 ([2]; recombinant hLTA4H),"inhibition in vivo at 10 mg/kg [1, 4] [%]",also measured
"Fc1ccc(Oc2ccc(OCCN3CCCC3)cc2)cc1 [Example 48, 1-[2-[4-(4-fluorophenoxy)phenoxy]ethyl]pyrrolidine]",6.82,–,"inhibition in vivo at 10 mg/kg [1, 3]: 13%"
c1ccc2ncc(Cc3ccc(OCCN4CCCC4)cc3)cc2c1 [Example 132],7.08,83,–
NC(=O)C1CCN(CCOc2ccc(Cc3ccccc3)cn2)CC1 [Example 147],5.97,94,–
NC(=O)C1CCN(CC2CCc3cc(Cc4ccccc4)ccc3O2)CC1 (centres unmarked) [Example 293],6.32,93,–
COC(=O)CCN(C)CCCOc1ccc(Cc2ccsc2)cc1 [Example 330],6.05,–,"inhibition in vivo at 10 mg/kg [1, 3]: 95%"
CCOC(=O)C1CCN(CCOc2ccc(Cc3ccccc3)s2)CC1 [Example 370],4.23,–,"inhibition in vivo at 10 mg/kg ([1]; Mus musculus, po, 1 h; read-out: Murine Ex Vivo LTB4 Inhibition % I LTB4): 96%"

# From patent publication US6506876B1, “LTA4 hydrolase inhibitor pharmaceutical compositions and methods of use” (G.D. Searle & Co., priority 1994, dated 2003)
